Key:
P2X7 receptor [1] = molecular target: T1, P2X7 receptor (Homo sapiens, UniProt Q99572); assay: YO-PRO-1 uptake assay; assay type: cell-based; set-up: expressed in transfected cells; conditions: HEK-293 cells stably transfected with P2X7 receptor; Bz-ATP EC80 (30 μM); Low Divalent Cation Assay Buffer
T1 sequence (Q99572 1-595): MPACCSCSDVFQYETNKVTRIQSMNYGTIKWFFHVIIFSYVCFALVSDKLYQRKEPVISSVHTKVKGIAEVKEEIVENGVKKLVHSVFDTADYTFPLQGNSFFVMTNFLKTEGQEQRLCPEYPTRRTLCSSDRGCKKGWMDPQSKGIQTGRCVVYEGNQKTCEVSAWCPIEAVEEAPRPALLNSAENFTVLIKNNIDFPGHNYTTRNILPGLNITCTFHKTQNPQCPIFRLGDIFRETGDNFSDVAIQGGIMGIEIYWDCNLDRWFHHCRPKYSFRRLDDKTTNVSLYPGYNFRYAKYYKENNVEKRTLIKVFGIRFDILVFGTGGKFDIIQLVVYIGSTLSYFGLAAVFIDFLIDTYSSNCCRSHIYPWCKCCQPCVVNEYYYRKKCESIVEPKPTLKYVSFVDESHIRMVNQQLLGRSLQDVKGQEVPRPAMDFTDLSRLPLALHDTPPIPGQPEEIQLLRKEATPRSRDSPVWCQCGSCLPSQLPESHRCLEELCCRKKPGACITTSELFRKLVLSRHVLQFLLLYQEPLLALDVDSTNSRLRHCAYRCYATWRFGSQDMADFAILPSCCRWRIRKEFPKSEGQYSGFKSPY
Source text: YO-PRO®-1 is a fluorescent DNA-binding dye with a MW of 374 Da (Molecular Probes®, cat. Y3603). This method is based upon the presumed ability of YO-PRO®-1 to enter through the dilated or “large pore form” of P2X7 receptor and to bind to intracellular DNA whereupon it increases many fold its fluorescence intensity. The dye ha an absorption spectrum compatible with excitation at 488 nm by argon laser sources and its emission wavelength is in the range of 515-575 nm. The aim of this assay was to validate the interaction of antagonists with P2X7 receptor using an alternative readout to Ca2+-sensitive fluorescent dyes.
HEK-293 cells stably transfected with P2X7 receptor were seeded overnight un growth medium at 20,000 cell/well in 384-well plate. 24 hours later, the medium was removed, the cells were washed with Low Divalent Cation Assay Buffer (0.3 mM Ca^2+ and 0 mM Mg^2+) and then pre-loaded with 20 μL/w of 5 μM YO-PRO®-1 dye.
FLIPRTETRA fluorescence measurement immediately started. Then 10 μL/w of test compounds and reference antagonist A438079 at 3×-concentration were injected with the FLIPRTETRA and the kinetic response over a period of five minutes was monitored. A second injection of 10 μL/w of 3× Bz-ATP EC80 (30 μM) was performed with the FLIPRTETRA and the signal of the emitted fluorescence was recorded for additional 60 minutes. All the experiment was carried out with a Low Divalent Cation Assay Buffer (0.3 mM Ca^2+ and 0 mM Mg^2+).
The effect of the test compounds was measured as percent inhibition vs the reference antagonist and IC50 values were calculated accordingly.

P2X7 receptor [2] = molecular target: T2, P2X7 receptor (Rattus norvegicus, UniProt Q64663); assay: Screen Quest Fluo-8 No Wash Calcium Assay (Bz-ATP evoked Ca2+ influx, FLIPR); assay type: cell-based; conditions: rP2X7; HEK-293 cells stably transfected with P2X7 receptor, Bz-ATP at EC80, Fluo-8 NW; potency ranges A-D
T2 construct: rP2X7 (IC50; nM); other: rP2X7; HEK-293 cells stably transfected with P2X7 receptor, Bz-ATP at EC80, Fluo-8 NW; potency
T2 sequence (Q64663 1-595): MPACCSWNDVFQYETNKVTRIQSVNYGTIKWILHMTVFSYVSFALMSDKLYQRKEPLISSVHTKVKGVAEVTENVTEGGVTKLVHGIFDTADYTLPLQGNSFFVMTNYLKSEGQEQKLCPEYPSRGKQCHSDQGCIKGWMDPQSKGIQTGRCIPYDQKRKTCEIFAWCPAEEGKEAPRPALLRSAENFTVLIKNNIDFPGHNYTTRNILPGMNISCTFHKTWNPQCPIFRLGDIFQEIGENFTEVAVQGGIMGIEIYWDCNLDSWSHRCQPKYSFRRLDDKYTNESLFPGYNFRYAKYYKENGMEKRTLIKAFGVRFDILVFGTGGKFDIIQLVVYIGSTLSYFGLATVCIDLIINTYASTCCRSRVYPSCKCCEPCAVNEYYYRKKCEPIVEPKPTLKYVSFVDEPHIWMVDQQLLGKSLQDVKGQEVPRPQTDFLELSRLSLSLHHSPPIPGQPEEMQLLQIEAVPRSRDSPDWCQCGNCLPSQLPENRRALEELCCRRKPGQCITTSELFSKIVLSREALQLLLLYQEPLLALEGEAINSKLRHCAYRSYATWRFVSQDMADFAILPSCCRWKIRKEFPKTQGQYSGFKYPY
How it was run: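 HEK-293 cells stably expressing P2X7 were loaded with Fluo-8 NW for 1 h at RT, then given compound, and 5 min later Bz-ATP at EC80. Fluorescence was read by FLIPR in low divalent cation buffer (0.3 mM Ca2+, 0 mM Mg2+). IC50 came from percent inhibition relative to reference antagonist A438079.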

Row | SMILES | IC50 (P2X7 receptor [1]) | IC50 (P2X7 receptor [2])
1 | O=c1onc(Cc2ccc(F)cc2)n1Cc1c(F)cccc1Cl [Example 1, 4-[(2-chloro-6-fluorophenyl)methyl]-3-[(4-fluorophenyl)methyl]-4,5-dihydro-1,2,4-oxadiazol-5-one] | 581 nM | 200 to 1000 nM
2 | O=c1onc(Cc2c(F)cccc2Cl)n1CC1CCC(F)(F)C1 (single isomer, unassigned) [Example 149, 3-(2-chloro-6-fluorobenzyl)-4-[(3,3-difluorocyclopentyl)methyl]-1,2,4-oxadiazol-5(4H)-one] | 66 nM | < 200 nM
3 | CC1(C)CCC(Cn2c(Cc3c(F)cccc3Cl)noc2=O)CC1 [Example 86, 3-[(2-chloro-6-fluorophenyl)methyl]-4-[(4,4-dimethylcyclohexyl)methyl]-4,5-dihydro-1,2,4-oxadiazol-5-one] | 111 nM | 200 to 1000 nM
4 | O=c1onc(Cc2ccccc2Cl)n1CC1CCCCC1 [Example 117, 3-[(2-chlorophenyl)methyl]-4-(cyclohexylmethyl)-4,5-dihydro-1,2,4-oxadiazol-5-one] | 143 nM | < 200 nM
5 | O=c1onc(Cc2cccc(F)c2)n1Cc1c(F)cccc1Cl [Example 81, 4-[(2-chloro-6-fluorophenyl)methyl]-3-[(3-fluorophenyl)methyl]-4,5-dihydro-1,2,4-oxadiazol-5-one] | 619 nM | 200 to 1000 nM
6 | O=c1onc(Cc2ccccc2Cl)n1Cc1ccc(F)cc1 [Example 76, 3-[(2-chlorophenyl)methyl]-4-[(4-fluorophenyl)methyl]-4,5-dihydro-1,2,4-oxadiazol-5-one] | 168 nM | 200 to 1000 nM
7 | O=c1onc(Cc2c(F)cccc2Cl)n1Cc1ccc(F)cc1Cl [Example 60, 4-[(2-chloro-4-fluorophenyl)methyl]-3-[(2-chloro-6-fluorophenyl)methyl]-4,5-dihydro-1,2,4-oxadiazol-5-one] | 366 nM | 1000 to 10000 nM
8 | O=c1snc(Cc2c(F)cccc2Cl)n1CC1CCC(F)(F)CC1 [Example 141, 3-[(2-chloro-6-fluorophenyl)methyl]-4-[(4,4-difluorocyclohexyl)methyl]-4,5-dihydro-1,2,4-thiadiazol-5-one] | 31 nM | < 200 nM
9 | O=c1onc(Cc2c(F)cccc2Cl)n1CC1CC2CCC1C2 (centres unmarked) [Example 88, 4-{bicyclo[2.2.1]heptan-2-ylmethyl}-3-[(2-chloro-6-fluorophenyl)methyl]-4,5-dihydro-1,2,4-oxadiazol-5-one] | 63 nM | < 200 nM
10 | Cc1noc(C)c1Cc1noc(=O)n1CC1CCC(F)(F)CC1 [Example 211, 4-[(4,4-difluorocyclohexyl)methyl]-3-[(dimethyl-1,2-oxazol-4-yl)methyl]-4,5-dihydro-1,2,4-oxadiazol-5-one] | 171 nM | 200 to 1000 nM
11 | O=c1onc(Cc2c(F)cccc2Cl)n1CC1CCCCC1 [Example 82, 3-[(2-chloro-6-fluorophenyl)methyl]-4-(cyclohexylmethyl)-4,5-dihydro-1,2,4-oxadiazol-5-one] | 30 nM | < 200 nM
12 | O=c1onc(Cc2c(F)cccc2Cl)n1Cc1ccc(F)cc1F [Example 61, 3-[(2-chloro-6-fluorophenyl)methyl]-4-[(2,4-difluorophenyl)methyl]-4,5-dihydro-1,2,4-oxadiazol-5-one] | 293 nM | 200 to 1000 nM
13 | CC1(C)CCCCC1Cn1c(Cc2c(F)cccc2Cl)noc1=O (centres unmarked) [Example 99, 3-[(2-chloro-6-fluorophenyl)methyl]-4-[(2,2-dimethylcyclohexyl)methyl]-4,5-dihydro-1,2,4-oxadiazol-5-one] | 142 nM | 200 to 1000 nM
14 | O=c1onc(Cc2c(F)cccc2Cl)n1Cc1ccc(Cl)cc1 [Example 65, 3-[(2-chloro-6-fluorophenyl)methyl]-4-[(4-chlorophenyl)methyl]-4,5-dihydro-1,2,4-oxadiazol-5-one] | 318 nM | 200 to 1000 nM
15 | O=c1onc(CC2CCCCC2)n1Cc1c(F)cccc1Cl [Example 130, 4-[(2-chloro-6-fluorophenyl)methyl]-3-(cyclohexylmethyl)-4,5-dihydro-1,2,4-oxadiazol-5-one] | 233 nM | < 200 nM
16 | O=c1onc(Cc2c(F)cccc2Cl)n1Cc1ccc(F)cc1 [Example 55, 3-[(2-chloro-6-fluorophenyl)methyl]-4-[(4-fluorophenyl)methyl]-4,5-dihydro-1,2,4-oxadiazol-5-one] | 50 nM | 200 to 1000 nM

Reference: patent US11623919B2, “Heterocyclic P2X7 antagonists” (AXXAM S.P.A., priority 2017, dated 2023)
